# Data from patent US7847064B2, “Methods and compositions for regulating gene expression in plant cells” (Donald Danforth Plant Science Center, priority 2004, dated 2010).
# Entries after “also recorded” stand apart in the source; their conditions may differ.
# Legend:
# Type in all cases: in vivo, Arabidopsis thaliana
# [1] = test system: VGE receptor; experiment: Histochemical GUS staining of treated leaves of T1 transgenic Arabidopsis; conditions: 67 T1 plants, 1:8000 dilution of Intrepid 2F on one leaf, two days, X-Gluc
# Description: Analysis of GUS activity—The relative GUS activity in the transgenic Arabidopsis plants described herein was measured by histochemical analysis. In each of sixty-seven (67) T1 transgenic Arabidopsis plants carrying E:GUS, 5G35Sm:RF2a and Cs:VGE, the 1:8000 dilution of Intrepid® 2F described above was applied to one true leaf, while the other leaves in each plant remained untreated. Two-days following the application of the expression-inducing ligand, the treated leaf together with one untreated leaf from the same plant were detached and subjected to GUS staining.
# More particularly, the plant leaf tissues mentioned above were submerged in stain solution containing 1 mM of X-Gluc in 100 mM sodium phosphate buffer (pH 7.0), 2 mM K3Fe(CN)6, 2 mM K4Fe(CN)6, 0.1% Triton X-100 and 20% methanol (Petruccelli et al. 2001). In order to evaluate GUS activity, several substrates are available. The most commonly used are 5-bromo-4-chloro-3-indolyl glucuronide (X-Gluc) and 4-methyl-umbelliferyl-glucuronide (MUG). […] For quantification purposes, MUG is preferred, because the umbelliferyl radical emits fluorescence under UV stimulation, thus providing better sensitivity and easy measurement by fluorometry. […]
# [2] = test system: VGE receptor; experiment: Induction of RF2a expression in transgenic Arabidopsis (Western Blot); conditions: 1:8000 dilution of Intrepid 2F; plants with E:GUS, 5G35Sm:RF2a, Cs:VGE
# Text: Induction of RF2a expression—RF2a expression was induced in the transgenic Arabidopsis plants described herein by application of a 1:8000 dilution of the pesticide Intrepid® 2F (Dow AgroSciences, Indianapolis, Ind.). The active ingredient in Intrepid® 2F pesticide is methoxyfenozide. […] Accordingly, the methoxyfenozide compound served as an expression-inducing ligand, which functioned to enhance expression of the RF2a-encoding sequence. Upon application of the methoxyfenozide compound, RF2a expression was induced, thereby allowing RF2a to interact with the Box II-containing E fragment, which was operably linked to the uidA sequence.
# Western Blot analysis—To detect the expression of RF2a in select transgenic lines described above, either treated or untreated with Intrepid® 2F, 40 μg of protein of each sample was separated by 12% SDS-PAGE and blotted onto nitrocellulose membrane. The Arabidopsis lines analyzed by Western Blot included EGaV50, EGaV59, EGaV63, EGaV70, EGaV72, and E:GUS. Rabbit anti-RF2a antibodies were first applied to the nitrocellulose membrane, incubated, and washed. Next, anti-rabbit horseradish peroxidase-conjugated secondary antibodies were applied to the membrane, incubated, and washed. Finally, SuperSignal substrate (Pierce, Rockford, Ill.) was applied to the membrane, incubated, and washed.
# [3] = test system: VGE receptor; experiment: Quantitative GUS activity (MUG) in T2 transgenic Arabidopsis; conditions: twelve T2 lines, 1:8000 dilution of Intrepid 2F in hydroponic solution, three days
# Description: Quantitative analysis of GUS activity in methoxyfenozide-treated plants was then conducted. T2 generation transgenic Arabidopsis plants from twelve T1 primary lines were selected on hygromycin selection medium. The lines are individually referred to herein as EGaV-3, EGaV-5, EGaV-17, EGaV-31, EGaV-50, EGaV-51, EGaV-56, EGaV-59, EGaV-63, EGaV-70, EGaV-72, and E:GUS. For each primary line, eighteen 14-day-old T2 plants were used. Nine plants, in three groups, were cultured in MS hydroponic solution containing a 1:8000 dilution of Intrepid 2F®. The remaining nine plants, in three groups, were left untreated and served as controls. After a three-day treatment period, the GUS activity in leaf tissue samples from each plant was quantified.
# Each sample of leaf tissue was ground to a powder in liquid nitrogen. Total protein was extracted from each sample by adding 300 μl of extraction buffer. Protein concentration of each sample was quantified using a Dc Protein Assay Kit (Bio-Rad Laboratories, Hercules, Calif.). GUS activity of each sample was quantified using MUG as substrate and a fluorescence spectrometer (Molecular Devices, Sunnyvale, Calif.) (Petruccelli et al., 2001).
smiles,measurement,setting,value
COc1cccc(C(=O)NN(C(=O)c2cc(C)cc(C)c2)C(C)(C)C)c1C [methoxyfenozide],plants with constitutive GUS expression pattern in treated leaves,[1],approximately 70%
same,RF2a expression,[2],enhance RF2a expression; also recorded: presence of RF2a
same,"induction of GUS expression in relation to untreated control plants, average",[3],2.1 fold
